We go through four compounds from patent publication US11793824B2, “Administration of nicotinamide mononucleotide in the treatment of disease” (Washington University, priority 2013, dated 2023).

The target of one series is T1, Sirt2 (Mus musculus, UniProt Q8VDQ8).
T1 construct: endogenous in cells; host or cells: dissociated primary neurospheres (NSPCs) from postnatal mouse hippocampi, differentiated for 6-7 days
T1 sequence (Q8VDQ8 1-389): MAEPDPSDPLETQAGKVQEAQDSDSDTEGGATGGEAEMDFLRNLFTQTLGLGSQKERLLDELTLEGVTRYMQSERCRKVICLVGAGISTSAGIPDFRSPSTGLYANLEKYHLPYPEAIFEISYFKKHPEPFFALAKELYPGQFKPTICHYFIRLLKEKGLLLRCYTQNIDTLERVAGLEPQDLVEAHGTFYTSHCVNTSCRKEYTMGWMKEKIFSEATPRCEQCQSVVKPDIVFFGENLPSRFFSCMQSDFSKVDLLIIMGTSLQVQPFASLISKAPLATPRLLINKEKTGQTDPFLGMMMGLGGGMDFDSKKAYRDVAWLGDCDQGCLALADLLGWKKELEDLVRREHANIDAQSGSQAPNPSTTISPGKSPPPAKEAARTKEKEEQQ
Description: Oligodendrocyte formation from dissociated neurospheres with Sirt2 inhibitor. It is filed as cell-based. Particulars: AGK2 10 μM, 6-7 days of differentiation. As to the method:
FK866 (Hasmann & Schemainda, 2003) (Sigma F8557), EX527 (Peck et al, 2010) (Cayman Chemical 10009798), and AGK2 (Outeiro et al, 2007) (Sigma A8231) were dissolved in DMSO and used to inhibit Nampt, Sirt1, and Sirt2 respectively.
Three to five days after their first passage, neurospheres were trypsinized, washed with dissociation medium, and plated at 150,000 cells per well in 24-well plates in differentiation medium [growth medium without FGF and EGF and with BDNF (5 ng/mL, Peprotech, 450-02) on glass coverslips coated with poly-D-lysine (50 ug/mL; Sigma) and laminin (20 ug/mL; BD Biosciences)]. 6-well plates were coated with poly-D-lysine (20 ug/mL) and laminin (10 ug/mL). To enrich for oligodendrocytes, PDGFαα (10 ng/ml, Peprotech 100-13A) was added to neurospheres at passage 2 and PDGFαα (2.5 ng/ml) and 3,3-,5-triiodo-L-thyronine (T3, 40 ng/ml, Sigma T4397) were added to differentiation medium. The percentage of oligodendrocyte precursor cells (OPCs) generated was analyzed after 2 d of differentiation, and the percentage of differentiated oligodendrocytes was analyzed after 6-7 d of differentiation.
The inventors acutely treated NSPCs with the selective inhibitor of Sirt2, AGK2, or the Sirt1 inhibitor, EX527. […] The inventors generated Sirt1/Sirt2-double knockout (Sirt1/2 DKO) neurospheres. […]

For a further series, the target named is T2, Sirt1 (Mus musculus, UniProt Q923E4).
T2 construct: endogenous in cells; host or cells: dissociated primary neurospheres (NSPCs) from postnatal mouse hippocampi, differentiated for 6-7 days
T2 sequence (Q923E4 1-737): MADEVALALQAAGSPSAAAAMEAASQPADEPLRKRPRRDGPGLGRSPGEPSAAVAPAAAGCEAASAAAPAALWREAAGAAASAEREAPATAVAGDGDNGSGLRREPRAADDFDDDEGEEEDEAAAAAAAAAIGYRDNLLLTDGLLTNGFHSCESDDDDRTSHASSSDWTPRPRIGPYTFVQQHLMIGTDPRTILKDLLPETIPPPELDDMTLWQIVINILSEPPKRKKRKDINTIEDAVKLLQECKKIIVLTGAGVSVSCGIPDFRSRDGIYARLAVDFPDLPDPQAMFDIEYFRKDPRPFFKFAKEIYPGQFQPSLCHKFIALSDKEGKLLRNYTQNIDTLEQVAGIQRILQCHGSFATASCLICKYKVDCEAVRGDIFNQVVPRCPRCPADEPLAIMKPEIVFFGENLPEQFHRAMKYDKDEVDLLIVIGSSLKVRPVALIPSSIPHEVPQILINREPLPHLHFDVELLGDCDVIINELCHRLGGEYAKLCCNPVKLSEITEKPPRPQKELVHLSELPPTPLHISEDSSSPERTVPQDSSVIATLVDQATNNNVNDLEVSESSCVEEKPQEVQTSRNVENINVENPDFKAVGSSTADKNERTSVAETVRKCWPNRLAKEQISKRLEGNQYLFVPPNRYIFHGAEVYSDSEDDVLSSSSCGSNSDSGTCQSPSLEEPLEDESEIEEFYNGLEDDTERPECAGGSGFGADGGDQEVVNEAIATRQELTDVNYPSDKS
Description: Oligodendrocyte formation from dissociated neurospheres with Sirt1 inhibitor. The class given is cell-based. Particulars: EX527 80 μM, 6-7 days of differentiation.

The test system of the next series is NestinGFP+ cells. In words: Cuprizone model of demyelination and remyelination, fate of NestinGFP+ cells. The class given is in vivo, mouse. As to the method:
Demyelination was induced by feeding 6 to 8-week-old mice a diet containing 0.2% cuprizone (bis-cyclohexanone oxaldihydrazone; Sigma C9012) mixed into a ground standard rodent chow for 4 to 5 weeks (Harlan Laboratories, TD.01453). To allow recovery from cuprizone treatment, food was replaced with standard chow for an additional 1 week.
All tissue sections were and cells incubated in blocking/permeabilization solution containing 10% normal goat serum, 1% BSA, and 0.3% Triton-X in PBS for 45 to 60 min prior to 24 or 48 h of incubation with primary antibodies in 5% normal goat serum and 0.1% Triton-X in PBS at 4° C. at the concentrations listed below. […], Alexa488, or Cy3 conjugated-secondary antibodies diluted in 2% normal goat serum, 1% BSA, and 0.1% Triton-X in PBS were added for 2 h at room temperature. Nuclei were stained with 4,6-diamidino-2-phenylindole (Sigma) for 10 min at room temperature.
For tissue sections, high-magnification (20×, 0.8DICII or 40× oil 1.3DICII) microscopic imaging was performed using a Zeiss Axioimage.Z1. Images were taken in z-stacks of 1 μm steps through the range of tissue section immunoreactivity. For the dorsolateral corner of the SVZ, images were taken from bregma 1.10 to −0.10 mm. For the corpus callosum, images were taken from bregma −1.06 to −2.54 mm. For the dentate gyrus, images were taken from bregma −1.34 to −3.64 mm. Quantification was performed blinded to genotype on 3-8 tissue sections per animal. Cell densities were estimated by the number of immunoreactive cells divided by the area of the structure, measured with ImageJ. Verification of colocalization was achieved by importing stacks of Z images into ImageJ and performing 3D rendering. For cells, 10 or 20× microscopic imaging was performed using a Zeiss Axioimage.Z1. Quantification was performed blinded to genotype on 2 to 3 fields of view per sample and treatment, from 3 to 9 independent samples.
The inventors employed the cuprizone model of demyelination and remyelination. Specifically, the inventors fed 6- to 9-week-old iNSPC-Nampt-KO and littermate control mice (iNSPC-GFP) a diet containing 0.2% cuprizone for 4-5 weeks, inducing deletion of Nampt in the adult Nestin+ population the week before starting the cuprizone diet (FIG. 20B) (Skripuletz et al, 2011). To ensure that analysis of progeny of adult Nestin+ cells, all mice in our cohort expressed Cre recombinase under the inducible Nestin promoter (Nestin-CreERT2) (Lagace et al, 2007) and the aforementioned Cre recombinase responsive GFP reporter transgene. The analysis focus was on lineage tracer marked (NestinGFP+) cells.

For series [1] the following is noted: cited from earlier work.
Where [2] appears, read: CC of control mice, cuprizone feeding.
[3] abbreviates: iNSPC-GFP CC, cuprizone feeding.

Structures are written as SMILES.

Description for Sirt1: Data are presented as mean±s.e.m. *P<0.05. **P<0.01. ***P<0.001.

`N#C/C(=C\c1ccc(-c2cc(Cl)ccc2Cl)o1)C(=O)Nc1cccc2ncccc12` [AGK2]: on Sirt2, the “oligodendrocyte formation (O4+)” value is “acutely suppressed oligodendrocyte formation”.
For the compound `NC(=O)C1CCCc2c1[nH]c1ccc(Cl)cc21` (stereo not drawn) [EX527], the “oligodendrocyte formation (O4+)” value on Sirt1 was “acutely suppressed oligodendrocyte formation”.
`O=C(NN=C1CCCCC1)C(=O)NN=C1CCCCC1` [cuprizone, bis-cyclohexanone oxaldihydrazone]: the “total number of NestinGFP+ cells in the iNSPC-GFP DG” value with NestinGFP+ cells (0.2% cuprizone diet 4-5 weeks) was “did not alter”. Further, in the series with NestinGFP+ cells (setting [2]), the “NestinGFP+Apc+ double positive cells” value came to 4% and the “NestinGFP+Sox10+ double positive cells” value was 16%. In addition, in the series on NestinGFP+ cells (SGZ, cuprizone fed), the “percentage of NestinGFP+ cells co-localized with Gfap+” value is on record as 41% and the “percentage of NestinGFP+ cells co-localized with Nestin+” value amounted to 35%. Also, in the series with NestinGFP+ cells (setting [3]), the “NestinGFP+Gfap+ double positive cells” value is on record as 24% and the “percentage of NestinGFP+Nestin+ cells” value worked out at 41%.
Turning to `O=C(O)c1cccnc1` [nicotinic acid], the “skeletal muscle insulin resistance” value in series [1] (chronic administration) is listed as “can cause skeletal muscle insulin resistance”. Further, in series [1] (chronic treatment), the “blood FFA levels” value was “tends to increase blood FFA levels”; the “total cholesterol and triglyceride levels” value was “lowers total cholesterol and triglyceride levels”.
